# pIC50: −log10 of the molar value.
# Target: T1, human Werner helicase (Uniprot Q14191, amino acids 517-1235 with L1074F point mutation), WRN-BV08 (Homo sapiens, UniProt Q14191, L1074F)
# T1 construct: Uniprot Q14191, amino acids 517-1235 with L1074F point mutation; TEV cleavable 8xHis tag (C, cleaved yes); made in house; host or cells: Sf9 insect cells (baculovirus, pFastBac)
# Assay: WRN (BV08) ADP-Glo Assay
# Format: biochemical
# Method: DNA duplex was synthesized at BGI (Shenzhen, China) and was composed of strand 1 with the sequence 5′-[…]-3′ (SEQ ID NO.: 1) and strand 2 with the sequence 5′-[…]-3′ (SEQ ID NO.: 2). DNA strands were annealed by heating to 95 °C for 5 minutes followed by slow cooling to room temperature. […] DMSO (0.1 μl) was added to columns 12, rows A-H and column 24, rows I-P for the maximum signal control.
# Where RLU=relative luminescence units, sample=signal in sample well, and MIN and MAX are the respective minimum and maximum signal controls. • Four-parameter IC50 fit equation:
# Y=Bottom+(Top−Bottom)/(1+(IC50/X)^Hill Slope)
# Where top and bottom are normally allowed to float but may be fixed at 100 or 0 respectively in a 3-parameter fit. Y is the % inhibition and X is the compound concentration.
# Molecular Biology and virus production. […] The baculovirus from the expression plasmid WRN-BV08 was generated from transfection and amplification following the manufacturer's instructions.
# Sf9 cells grown in SF900II media were infected with 1:200 WRN-BV08 P2 virus and incubated for protein expression for 72 h at 27 °C. The WRN protein was purified using the following protocol. The cell pellets were thawed and resuspended in buffer A (50 mM Tris, pH 7.5, 500 mM NaCl, 1 mM TCEP, 10% Glycerol) supplemented with 0.5% CHAPS, 1 mM [COMPOUND LEFT OUT], 1 μg/ml Leupeptin, 1 μg/ml Pepstatin, and the Pierce Universal Nuclease and cocktail tablet. Cleared lysates were loaded onto a Ni Sepharose™ excel column and washed with buffer A and bound protein was eluted with buffer A supplemented with 300 mM imidazole. The eluted protein was dialyzed against buffer A and digested by His-tagged TEV (1:5 ratio) overnight at 4 °C. […] Untagged WRN protein was eluted from the column with buffer A supplemented with 20 mM imidazole, dialyzed overnight into buffer B (50 mM Tris, pH 7.5, 1 mM TCEP, 10% Glycerol) supplemented with 150 mM NaCl and loaded onto a Heparin column. Proteins were eluted with a step gradient of buffer B supplemented with 150 mM, 200 mM, 300 mM and 500 mM NaCl.
# T1 sequence (Q14191 517-1235 L1074F): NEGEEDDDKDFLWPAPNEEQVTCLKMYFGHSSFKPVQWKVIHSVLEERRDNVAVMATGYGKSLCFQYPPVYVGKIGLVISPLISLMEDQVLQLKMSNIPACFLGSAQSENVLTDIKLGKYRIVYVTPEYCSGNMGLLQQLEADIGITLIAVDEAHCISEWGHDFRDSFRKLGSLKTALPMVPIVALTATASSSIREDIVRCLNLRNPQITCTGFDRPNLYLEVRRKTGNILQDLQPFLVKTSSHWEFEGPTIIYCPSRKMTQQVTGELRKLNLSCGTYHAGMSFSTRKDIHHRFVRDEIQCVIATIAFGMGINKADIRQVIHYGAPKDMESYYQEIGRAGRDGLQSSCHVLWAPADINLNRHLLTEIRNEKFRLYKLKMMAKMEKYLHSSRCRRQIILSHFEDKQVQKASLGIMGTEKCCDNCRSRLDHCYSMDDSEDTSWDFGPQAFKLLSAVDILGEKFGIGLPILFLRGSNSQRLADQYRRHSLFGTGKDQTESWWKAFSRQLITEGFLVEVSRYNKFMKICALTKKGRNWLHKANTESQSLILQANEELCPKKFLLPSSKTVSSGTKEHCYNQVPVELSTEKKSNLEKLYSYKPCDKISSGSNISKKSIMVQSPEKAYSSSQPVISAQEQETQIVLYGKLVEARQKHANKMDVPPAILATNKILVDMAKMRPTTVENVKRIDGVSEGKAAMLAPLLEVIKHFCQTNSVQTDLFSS
row,Structure (SMILES),pIC50
1,"CCc1c(N2CCN(C(=O)c3ncc4c(c3O)CCO4)CC2)c(=O)n2nc(C3=CCOCC3)nc2n1CC(=O)Nc1ccc(C(F)(F)F)cc1Cl [Compound I-84, N-[2-chloro-4-(trifluoromethyl)phenyl]-2-[2-(3,6-dihydro-2H-pyran-4-yl)-5-ethyl-6-(4-{4-hydroxy-2H,3H-furo[2,3-c]pyridine-5-carbonyl}piperazin-1-yl)-7-oxo-4H,7H-[1,2,4]triazolo[1,5-a]pyrimidin-4-yl]acetamide]",> 8.30
2,"CCc1c(N2CCN(C(=O)c3cnn(C)c3)CC2)c(=O)n2nc(C3=CCOCC3)nc2n1CC(=O)Nc1ccc(C(F)(F)F)cc1Cl [Compound I-23, N-[2-chloro-4-(trifluoromethyl)phenyl]-2-[2-(3,6-dihydro-2H-pyran-4-yl)-5-ethyl-6-[4-(1-methyl-1H-pyrazole-4-carbonyl)piperazin-1-yl]-7-oxo-4H,7H-[1,2,4]triazolo[1,5-a]pyrimidin-4-yl]acetamide]",7.30 to 8.30
3,"CCc1c(N2CCN(C(=O)c3cnn(C4CC4)c3)CC2)c(=O)n2nc(-c3ccnc(OC)c3)nc2n1CC(=O)Nc1ccc(C(F)(F)F)cc1Cl [Compound I-60, N-[2-chloro-4-(trifluoromethyl)phenyl]-2-{6-[4-(1-cyclopropyl-1H-pyrazole-4-carbonyl)piperazin-1-yl]-5-ethyl-2-(2-methoxypyridin-4-yl)-7-oxo-4H,7H-[1,2,4]triazolo[1,5-a]pyrimidin-4-yl}acetamide]",7.30 to 8.30
4,"CCc1c(N2CCN(C(=O)c3nn(C)cc3O)CC2)c(=O)n2nc(C3CC3)nc2n1CC(=O)Nc1ccc(C(F)(F)F)cc1Cl [Compound I-36, N-[2-chloro-4-(trifluoromethyl)phenyl]-2-{2-cyclopropyl-5-ethyl-6-[4-(4-hydroxy-1-methyl-1H-pyrazole-3-carbonyl)piperazin-1-yl]-7-oxo-4H,7H-[1,2,4]triazolo[1,5-a]pyrimidin-4-yl}acetamide]",6.30 to 7.00
5,"CCc1c(N2CCN(C(=O)C(F)(F)F)CC2)c(=O)n2nc(-c3ccnc(OC)c3)nc2n1CC(=O)Nc1ccc(C(F)(F)F)cc1Cl [Compound I-47, N-[2-chloro-4-(trifluoromethyl)phenyl]-2-[5-ethyl-2-(2-methoxypyridin-4-yl)-7-oxo-6-[4-(2,2,2-trifluoroacetyl)piperazin-1-yl]-4H,7H-[1,2,4]triazolo[1,5-a]pyrimidin-4-yl]acetamide]",7.00 to 7.30
6,"CCc1c(N2CCN(C(=O)c3cccc(C)c3O)CC2)c(=O)n2nc(C3=CCOCC3)nc2n1CC(=O)Nc1ccc(C(F)(F)F)cc1Cl [Compound I-3, N-[2-chloro-4-(trifluoromethyl)phenyl]-2-[2-(3,6-dihydro-2H-pyran-4-yl)-5-ethyl-6-[4-(2-hydroxy-3-methylbenzoyl)piperazin-1-yl]-7-oxo-4H,7H-[1,2,4]triazolo[1,5-a]pyrimidin-4-yl]acetamide]",7.30 to 8.30
7,"CCc1c(N2CCN(C(=O)c3c(O)cncc3F)CC2)c(=O)n2nc(C3=CCOCC3)nc2n1CC(=O)Nc1ccc(C(F)(F)F)cc1Cl [Compound I-9, N-[2-chloro-4-(trifluoromethyl)phenyl]-2-[2-(3,6-dihydro-2H-pyran-4-yl)-5-ethyl-6-[4-(3-fluoro-5-hydroxypyridine-4-carbonyl)piperazin-1-yl]-7-oxo-4H,7H-[1,2,4]triazolo[1,5-a]pyrimidin-4-yl]acetamide]",7.30 to 8.30
8,"CCc1c(N2CCN(C(=O)C(C)(C)CO)CC2)c(=O)n2nc(C3=CCOCC3)nc2n1CC(=O)Nc1ccc(C(F)(F)F)cc1Cl [Compound I-20, N-[2-chloro-4-(trifluoromethyl)phenyl]-2-[2-(3,6-dihydro-2H-pyran-4-yl)-5-ethyl-6-[4-(3-hydroxy-2,2-dimethylpropanoyl)piperazin-1-yl]-7-oxo-4H,7H-[1,2,4]triazolo[1,5-a]pyrimidin-4-yl]acetamide]",7.30 to 8.30
9,"CCc1c(N2CCN(C(=O)c3cn[nH]n3)CC2)c(=O)n2nc(C3=CCOCC3)nc2n1CC(=O)Nc1ccc(C(F)(F)F)cc1Cl [Compound I-38, N-[2-chloro-4-(trifluoromethyl)phenyl]-2-[2-(3,6-dihydro-2H-pyran-4-yl)-5-ethyl-7-oxo-6-[4-(2H-1,2,3-triazole-4-carbonyl)piperazin-1-yl]-4H,7H-[1,2,4]triazolo[1,5-a]pyrimidin-4-yl]acetamide]",> 8.30
10,"CCc1c(N2CCN(C(=O)c3cnc(C)s3)CC2)c(=O)n2nc(-c3ccnc(OC)c3)nc2n1CC(=O)Nc1ccc(C(F)(F)F)cc1Cl [Compound I-59, N-[2-chloro-4-(trifluoromethyl)phenyl]-2-[5-ethyl-2-(2-methoxypyridin-4-yl)-6-[4-(2-methyl-1,3-thiazole-5-carbonyl)piperazin-1-yl]-7-oxo-4H,7H-[1,2,4]triazolo[1,5-a]pyrimidin-4-yl]acetamide]",7.30 to 8.30
11,"CCc1c(N2CCN(C(C)=O)CC2)c(=O)n2nc(-c3cnn(CC(C)(C)O)c3)nc2n1CC(=O)Nc1ccc(C(F)(F)F)cc1Cl [Compound I-55, 2-[6-(4-acetylpiperazin-1-yl)-5-ethyl-2-[1-(2-hydroxy-2-methylpropyl)-1H-pyrazol-4-yl]-7-oxo-4H,7H-[1,2,4]triazolo[1,5-a]pyrimidin-4-yl]-N-[2-chloro-4-(trifluoromethyl)phenyl]acetamide]",7.30 to 8.30
12,"CCc1c(N2CCN(C(=O)c3cnn(C)c3)CC2)c(=O)n2nc(-c3cc(OC)ncc3F)nc2n1CC(=O)Nc1ccc(C(F)(F)F)cc1Cl [Compound I-72, N-[2-chloro-4-(trifluoromethyl)phenyl]-2-[5-ethyl-2-(5-fluoro-2-methoxypyridin-4-yl)-6-[4-(1-methyl-1H-pyrazole-4-carbonyl)piperazin-1-yl]-7-oxo-4H,7H-[1,2,4]triazolo[1,5-a]pyrimidin-4-yl]acetamide]",7.30 to 8.30
13,"CCc1c(N2CCC3C2CCN3C(=O)c2cnn(C)c2)c(=O)n2nc(C3=CCOCC3)nc2n1CC(=O)Nc1ccc(C(F)(F)F)cc1Cl (stereo not drawn) [Compound I-68, N-[2-chloro-4-(trifluoromethyl)phenyl]-2-[2-(3,6-dihydro-2H-pyran-4-yl)-5-ethyl-6-[4-(1-methyl-1H-pyrazole-4-carbonyl)-octahydropyrrolo[3,2-b]pyrrol-1-yl]-7-oxo-4H,7H-[1,2,4]triazolo[1,5-a]pyrimidin-4-yl]acetamide]",7.00 to 7.30
14,"CCc1c(N2CCN(C(=O)[C@H]3C[C@@H](O)C3)CC2)c(=O)n2nc(C3=CCOCC3)nc2n1CC(=O)Nc1ccc(C(F)(F)F)cc1Cl [Compound I-39, N-[2-chloro-4-(trifluoromethyl)phenyl]-2-[2-(3,6-dihydro-2H-pyran-4-yl)-5-ethyl-7-oxo-6-{4-[(1s,3s)-3-hydroxycyclobutanecarbonyl]piperazin-1-yl}-4H,7H-[1,2,4]triazolo[1,5-a]pyrimidin-4-yl]acetamide]",7.30 to 8.30
15,"CCc1c(N2CCN(C(=O)c3c(C)nn(C)c3OC)CC2)c(=O)n2nc(-c3ccnc(OC)c3)nc2n1CC(=O)Nc1ccc(C(F)(F)F)cc1Cl [Compound I-62, N-[2-chloro-4-(trifluoromethyl)phenyl]-2-{5-ethyl-6-[4-(5-methoxy-1,3-dimethyl-1H-pyrazole-4-carbonyl)piperazin-1-yl]-2-(2-methoxypyridin-4-yl)-7-oxo-4H,7H-[1,2,4]triazolo[1,5-a]pyrimidin-4-yl}acetamide]",7.30 to 8.30
16,"CCc1c(N2CCN(C(=O)c3c(O)cccc3F)CC2)c(=O)n2nc(C3=CCOCC3)nc2n1CC(=O)Nc1ccc(C(F)(F)F)cc1Cl [Compound I-1, N-[2-chloro-4-(trifluoromethyl)phenyl]-2-[2-(3,6-dihydro-2H-pyran-4-yl)-5-ethyl-6-[4-(2-fluoro-6-hydroxybenzoyl)piperazin-1-yl]-7-oxo-4H,7H-[1,2,4]triazolo[1,5-a]pyrimidin-4-yl]acetamide]",7.30 to 8.30
17,"CCc1c(N2CCN(C(=O)c3cnn(C)c3)CC2)c(=O)n2nc(-c3ccnc(OC)c3)nc2n1CC(=O)Nc1ccc(C(F)(F)F)cc1Cl [Compound I-48, N-[2-chloro-4-(trifluoromethyl)phenyl]-2-[5-ethyl-2-(2-methoxypyridin-4-yl)-6-[4-(1-methyl-1H-pyrazole-4-carbonyl)piperazin-1-yl]-7-oxo-4H,7H-[1,2,4]triazolo[1,5-a]pyrimidin-4-yl]acetamide]",> 8.30
18,"CCc1c(N2CCN(C(=O)c3sc(C(F)(F)F)cc3O)CC2)c(=O)n2nc(C3=CCOCC3)nc2n1CC(=O)Nc1ccc(C(F)(F)F)cc1Cl [Compound I-7, N-[2-chloro-4-(trifluoromethyl)phenyl]-2-[2-(3,6-dihydro-2H-pyran-4-yl)-5-ethyl-6-{4-[3-hydroxy-5-(trifluoromethyl)thiophene-2-carbonyl]piperazin-1-yl}-7-oxo-4H,7H-[1,2,4]triazolo[1,5-a]pyrimidin-4-yl]acetamide]",7.30 to 8.30
